Assay results reported in patent publication US8288379B2, “Thia-triaza-cyclopentazulenes” (Boehringer Ingelheim International GmbH, priority 2009, dated 2012).

Molecular target: T1, FRAP1 (mTOR) kinase (Homo sapiens, UniProt P42345)
T1 construct: purchased Invitrogen PV4753
Assay: Inhibition of mTOR-induced p-4E-BP1 phosphorylation (TR-FRET mTOR Activity Kit; Invitrogen)
Assay type: biochemical
Settings: 400 nM GFP-4E-BP1 substrate, ~150 ng/mL mTOR, one hour at room temperature
Excerpt: Inhibition of mTOR-Induced p-4E-BP1 Phosphorylation (TR-FRET mTOR Activity Kit; Invitrogen)
• GFP-4E-BP1 substrate; Invitrogen order no. PV4759 • Lanthascreen Tb-anti-p4E-BP1 (pThr46) Antibody Kit; Invitrogen order no. PV4758 • FRAP1 (mTOR) kinase; Invitrogen order no. […] Preparation of Reagents: Note: Thaw and keep mTOR, the substrate, ATP, and the antibody on ice prior to making working dilutions. Working dilutions of these components can be kept at room temperature for short periods of time the day of use. 1. Add 2 ml of 5× Assay Buffer to 8 ml water to prepare 10 ml of 1× Assay Buffer. Note: The concentration of 1× Assay Buffer is 50 mM HEPES pH 7.5, 0.01% Polysorbate 20, 1 mM EGTA, and 10 mM MnCl2. 2. Prepare Antibody/EDTA Solution by first adding 2.75 n1 of Tb-anti p4E-BP1 Antibody to 2397 n1 of LanthaScreen™ TR-FRET Dilution Buffer. Then, add 100 n1 of 0.5 M EDTA. 3. Prepare 4× Substrate/Enzyme Solution by first adding 72 n1 of GFP-4E-BP1 (22 nM) to 926 n1 of 1× Assay Buffer. Then, add 1.6 n1 of mTOR (0.45 mg/mL). 4. Prepare ATP Solution by adding 3.2 n1 of 10 mM ATP to 1997 n1 of 1× Assay Buffer. Serial Dilution of Inhibitors (16 Point Curve): Note: It is recommended that inhibitors be serially diluted in DMSO, then diluted to a 4× working concentration with 1× Assay Buffer. The below procedure describes dilution of compounds in a 96-well format prior to transfer to a 384-well format for kinase assays. This procedure calls for dilution of the compounds in 2 adjacent columns of a 96-well plate, which upon transfer to a single column of a 384-well plate with an 8-channel pipette will align the samples in order of concentration. 1. Dispense 40 n1 of DMSO to two adjacent columns of a 96 well plate per compound (e.g. columns 1 and 2). 2. Add 10 n1 of inhibitor stock (10 mM) to the first well of the first column (A1) and mix. 3. Remove 10 n1 from A1 and transfer to the adjacent well in the next column (B1) and mix. 4. Remove 10 n1 from B1 and transfer to the next well in the first column (B2) and mix. 5. Repeat this dilution pattern through well H1 and leave the last well (H2) as DMSO only. 6. Remove 4 n1 of diluted compounds and add to 96 n1 of 1× Assay Buffer in a 96-well plate making 4× compound dilutions. Kinase Reaction: 1. Add 2.5 μl of 4× compound dilutions from the first column of the 96-well plate to every other well of column 1 of a 384-well plate with an 8-channel pipette. Repeat for columns 2 and 3. 2. Add 2.5 n1 of 4× compound dilutions from the second column of the 96-well plate to the empty wells of column 1 of the 384-well plate with an 8-channel pipette. Repeat for columns 2 and 3. Note: This procedure aligns the compound dilutions in order of concentration. 3. Add 2.5 n1 of 4× Enzyme/Substrate Solution to all columns 1-6. 4. Preincubate for 30 min. at RT (shaker). 5. Add 5 n1 of ATP Solution to all wells to start reactions. 6. Shake the assay plate on a plate shaker for 30 seconds. 7. Incubate the assay plate for one hour at room temperature (20-25° C.). Stop Step and Fluorescence Detection: 1. Add 10 n1 of Antibody/EDTA Solution to each well in columns 1-9. 2. Shake the assay plate on a plate shaker for 30 seconds. 3. Incubate the assay plate for one hour at room temperature (20-25° C.). 4. Measure the GFP (FRET) and terbium (reference) emission signals on a fluorescence plate reader (e.g. Perkin Elmer Envision). Data Analysis: 1. Calculate the emission ratio for each sample by dividing the GFP (FRET) signal by the terbium (reference) signal. 2. Plot the concentration of each compound versus the emission ratio. Determine the concentration of compound required to reach 50% of the maximum signal (IC50). Determination of IC50 values can be obtained by curve fitting (sigmoidal dose response, variable slope) using Prism software from GraphPad). Inhibition of Proliferation: CyQuant PC-3 Description: […]

T1 sequence (P42345 1360-2549 limits assumed): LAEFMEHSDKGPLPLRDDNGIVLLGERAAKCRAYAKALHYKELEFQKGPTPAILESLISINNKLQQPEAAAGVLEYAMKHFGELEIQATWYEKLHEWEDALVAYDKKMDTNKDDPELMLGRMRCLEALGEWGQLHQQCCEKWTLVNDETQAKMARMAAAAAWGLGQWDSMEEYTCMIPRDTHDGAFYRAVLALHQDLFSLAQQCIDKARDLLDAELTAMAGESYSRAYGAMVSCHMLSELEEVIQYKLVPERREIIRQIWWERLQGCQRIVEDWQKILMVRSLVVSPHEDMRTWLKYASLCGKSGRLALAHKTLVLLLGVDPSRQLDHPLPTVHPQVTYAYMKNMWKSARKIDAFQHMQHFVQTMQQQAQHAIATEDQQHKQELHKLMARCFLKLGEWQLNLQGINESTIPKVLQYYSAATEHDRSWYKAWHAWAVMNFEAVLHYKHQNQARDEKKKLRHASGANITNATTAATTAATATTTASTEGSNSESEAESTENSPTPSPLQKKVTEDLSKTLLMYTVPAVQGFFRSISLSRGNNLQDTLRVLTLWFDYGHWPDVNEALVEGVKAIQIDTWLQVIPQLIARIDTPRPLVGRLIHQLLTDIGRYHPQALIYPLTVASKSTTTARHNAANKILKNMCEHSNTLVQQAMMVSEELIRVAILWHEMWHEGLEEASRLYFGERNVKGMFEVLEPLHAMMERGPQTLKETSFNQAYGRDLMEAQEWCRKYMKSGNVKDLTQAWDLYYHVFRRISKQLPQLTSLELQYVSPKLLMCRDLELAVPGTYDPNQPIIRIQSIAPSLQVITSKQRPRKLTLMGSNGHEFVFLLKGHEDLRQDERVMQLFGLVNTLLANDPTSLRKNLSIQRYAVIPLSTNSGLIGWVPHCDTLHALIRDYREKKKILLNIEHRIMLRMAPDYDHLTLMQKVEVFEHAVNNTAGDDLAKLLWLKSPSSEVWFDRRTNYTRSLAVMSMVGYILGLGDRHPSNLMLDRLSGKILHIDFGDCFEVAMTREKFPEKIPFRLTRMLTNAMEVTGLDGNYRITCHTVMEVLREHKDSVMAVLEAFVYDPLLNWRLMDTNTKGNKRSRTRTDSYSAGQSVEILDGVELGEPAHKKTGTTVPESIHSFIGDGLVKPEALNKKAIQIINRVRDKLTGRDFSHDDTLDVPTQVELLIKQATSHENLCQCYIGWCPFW

| SMILES | IC50 [nM] |
| --- | --- |
| CCNc1ccc(-c2nn(-c3ccccc3Br)c3c2CCCc2nc(NC(C)=O)sc2-3)cn1 [Example B-74] | 168 |
| CNc1ccc(-c2nn(-c3cccnc3)c3c2CCCc2nc(NC(C)=O)sc2-3)cn1 [Example B-84] | 50 |
| CCc1ccccc1-n1nc(-c2ccc(NC)nc2)c2c1-c1sc(NC(C)=O)nc1CCC2 [Example B-88, N-[1-(2-Ethyl-phenyl)-3-(6-methylamino-pyridin-3-yl)-1,4,5,6-tetrahydro-9-thia-1,2,7-triaza-cyclopenta[e]azulen-8-yl]-acetamide] | 269 |
| CC(=O)Nc1nc2c(s1)-c1c(c(-c3cncn3C)nn1-c1ccccc1C)CCC2 [Example B-93] | 1110 |
| CC(=O)Nc1nc2c(s1)-c1c(c(-c3cncn3C)nn1-c1ccccc1)CCC2 [Example B-94] | 8360 |
| CC(=O)Nc1nc2c(s1)-c1c(c(-c3ccc(C)nc3)nn1-c1cccnc1)CCC2 [Example B-95] | 74 |
| CN(C)C(=O)Nc1nc2c(s1)-c1c(c(-c3ccc(N)nc3)nn1-c1ccccc1F)CCC2 [Example B-97] | 175 |
| CNc1ccc(-c2nn(CCN3CCOCC3)c3c2CCCc2nc(NC(=O)N(C)C)sc2-3)cn1 [Example B-98] | 737 |
| CCNc1ccc(-c2nn(-c3ccccc3C)c3c2CCCc2nc(NC(=O)COC)sc2-3)cn1 [Example B-100, N-[3-(6-Ethylamino-pyridin-3-yl)-1-o-tolyl-1,4,5,6-tetrahydro-9-thia-1,2,7-triaza-cyclopenta[e]azulen-8-yl]-2-methoxy-acetamide] | 286 |
| Cc1ccccc1-n1nc(-c2ccc(N)nc2)c2c1-c1sc(NC(=O)CN)nc1CCC2 [Example B-102] | 32 |
| COCC(=O)Nc1nc2c(s1)-c1c(c(-c3ccc(N)nc3)nn1-c1ccccc1C)CCC2 [Example B-104, N-[3-(6-Amino-pyridin-3-yl)-1-o-tolyl-1,4,5,6-tetrahydro-9-thia-1,2,7-triaza-cyclopenta[e]azulen-8-yl]-2-methoxy-acetamide] | 72 |
| CC(=O)Nc1nc2c(s1)-c1c(c(-c3ccc(N)nc3)nn1CCN1CCOCC1)CCC2 [Example B-105] | 1380 |
| CNc1ccc(-c2nn(-c3ccccc3C)c3c2CCCc2nc(NC(=O)COC)sc2-3)cn1 [Example B-107, 2-Methoxy-N-[3-(6-methylamino-pyridin-3-yl)-1-o-tolyl-1,4,5,6-tetrahydro-9-thia-1,2,7-triaza-cyclopenta[e]azulen-8-yl]-acetamide] | 427 |
| CC(=O)Nc1nc2c(s1)-c1c(c(-c3c[nH]cn3)nn1CCN(C)C)CCC2 [Example B-110] | 840 |
| CC(=O)Nc1nc2c(s1)-c1c(c(-c3c[nH]c(C)n3)nn1CCN(C)C)CCC2 [Example B-119] | 1880 |
| CCNc1ccc(-c2nn(C(C)(C)C)c3c2CCCc2nc(NC(C)=O)sc2-3)cn1 [Example B-123] | 1140 |
| CCNc1ccc(-c2nn(CCN3CCOCC3)c3c2CCCc2nc(NC(C)=O)sc2-3)cn1 [Example B-124] | 994 |
| CCNc1ccc(-c2nn(C(C)COC)c3c2CCCc2nc(NC(C)=O)sc2-3)cn1 (centres unmarked) [Example B-126] | 84 |
| CCNc1ccc(-c2nn(C(C)C)c3c2CCCc2nc(NC(=O)NC)sc2-3)cn1 [Example B-140] | 182 |
| CCNc1ccc(-c2nn(-c3cccnc3C)c3c2CCCc2nc(NC(=O)N(C)C)sc2-3)cn1 [Example B-141] | 512 |
| CNC(=O)Nc1nc2c(s1)-c1c(c(-c3ccc(NC)nc3)nn1-c1ccccc1C)CCC2 [Example B-142, 1-Methyl-3-[3-(6-methylamino-pyridin-3-yl)-1-o-tolyl-1,4,5,6-tetrahydro-9-thia-1,2,7-triaza-cyclopent[e]azulen-8-yl]-urea] | 92 |
| CNC(=O)Nc1nc2c(s1)-c1c(c(-c3ccc(NC)nc3)nn1C(C)C)CCC2 [Example B-144, 1-[1-Isopropyl-3-(6-methylamino-pyridin-3-yl)-1,4,5,6-tetrahydro-9-thia-1,2,7-triaza-cyclopent[e]azulen-8-yl]-3-methyl-urea] | 113 |

| SMILES | IC50 [nM] |
| --- | --- |
| CCNc1ccc(-c2nn(-c3ccccc3C)c3c2CCCc2nc(N)sc2-3)cn1 [Example C-03] | 3340 |
| CCNc1ccc(-c2nn(-c3ccncc3C)c3c2CCCc2nc(N)sc2-3)cn1 [Example C-07] | 2190 |
| CC(C)n1ncc2c1-c1scnc1CCC2 [Example C-08, 1-Isopropyl-1,4,5,6-tetrahydro-9-thia-1,2,7-triaza-cyclopent[e]azulene] | 2440 |
| Cc1ccc(-c2nn(-c3ccccc3C)c3c2CCCc2nc(NC(N)=O)sc2-3)cn1 [Example D-04] | 402 |
| CNC(=O)Nc1nc2c(s1)-c1c(c(-c3ccc(C)nc3)nn1-c1ccccc1C)CCC2 [Example D-05] | 358 |
| COCCNC(=O)Nc1nc2c(s1)-c1c(c(-c3ccc(C)nc3)nn1-c1ccccc1C)CCC2 [Example D-06] | 1600 |
| Cc1ccc(-c2nn(-c3ccccc3C)c3c2CCCc2nc(NC(=O)NCCN(C)C)sc2-3)cn1 [Example D-07] | 1280 |
| CNC(=O)c1nn(C(C)C)c2c1CCCc1nc(NC(C)=O)sc1-2 [Example E-01] | 5180 |
| CC(=O)Nc1nc2c(s1)-c1c(c(C(=O)N(C)C)nn1C(C)C)CCC2 [Example E-02] | 16000 |
| CC(=O)Nc1nc2c(s1)-c1c(c(C(=O)N(C)CCN(C)C)nn1C(C)C)CCC2 [Example E-03] | 4850 |
| CC(=O)Nc1nc2c(s1)-c1c(c(C(=O)NCCO)nn1C(C)C)CCC2 [Example E-04] | 4890 |
| CC(=O)Nc1nc2c(s1)-c1c(c(C(=O)N(C)CCO)nn1C(C)C)CCC2 [Example E-05] | ≥ 20000 |
| CC(=O)Nc1nc2c(s1)-c1c(c(C(=O)NCCCO)nn1C(C)C)CCC2 [Example E-06] | 18000 |
| COCCNC(=O)c1nn(C(C)C)c2c1CCCc1nc(NC(C)=O)sc1-2 [Example E-07] | 11400 |
| COCCN(C)C(=O)c1nn(C(C)C)c2c1CCCc1nc(NC(C)=O)sc1-2 [Example E-08] | ≥ 20000 |
| CC(=O)Nc1nc2c(s1)-c1c(c(C(=O)Nc3ccccc3)nn1C(C)C)CCC2 [Example E-09] | 8450 |
| CC(=O)Nc1nc2c(s1)-c1c(c(C(=O)Nc3cc[nH]n3)nn1C(C)C)CCC2 [Example E-10] | 1580 |
| COC(=O)CCNC(=O)c1nn(C(C)C)c2c1CCCc1nc(NC(C)=O)sc1-2 [Example E-11] | 6260 |
| CCOC(=O)CCCNC(=O)c1nn(C(C)C)c2c1CCCc1nc(NC(C)=O)sc1-2 [Example E-12] | 5410 |
| COCC(=O)Nc1nc2c(s1)-c1c(c(-c3ccc(C)nc3)nn1-c1ccccc1C)CCC2 [Example E-13] | 524 |
| COCCC(=O)Nc1nc2c(s1)-c1c(c(-c3ccc(C)nc3)nn1-c1ccccc1C)CCC2 [Example E-14] | 698 |
| Cn1ncc2c1-c1sc(-c3cccnc3)nc1CCC2 [Example G-02] | ≥ 20000 |
